Results on one compound are retold here after patent US12202845.

The conditions of this data set: from CCn1c(-c2cccnc2[C@H](C)OC)c(CC(C)(C)CO)c2cc(C3=CCCN(CC(NC(=O)OC(C)(C)C)C(=O)N4CCC[C@@H](C(=O)O)N4)C3)ccc21; ester bond; 18-membered ring; EDCI.HCl/HOBt/DIPEA; DCM; 7.1 mM; 30.0 °C; 16.0 h.

Regarding `CCn1c(-c2cccnc2[C@H](C)OC)c2c3cc(ccc31)C1=CCCN(C1)CC(NC(=O)OC(C)(C)C)C(=O)N1CCC[C@H](N1)C(=O)OCC(C)(C)C2` (stereo partly shown), the ring closure, isolated yield came out at 40%.
